According to patent US9150583B2 (Boehringer Ingelheim International GmbH, priority 2011, dated 2015):

Columns and labels:
Recombinant human CETP = Recombinant human CETP (Homo sapiens (Human), UniProt P11597); experiment: CETP in vitro assay (fluorometric, Roar Biomedical); type: biochemical; conditions: 3 hours at 37° C., compound concentrations between 1 nM and 30 μM, read-out: IC50 values for inhibition of CETP
Experimental: CETP inhibitory activity of compounds of the present invention can be determined in a fluorometric assay purchased from Roar Biomedical, Inc. (New York, N.Y., USA). […] Recombinant human CETP was partially purified from medium conditioned by CETP expressing CHO cells. In a 384 well format 2.5 μl of compound solution in DMSO was combined with 2 μl of donor solution, 2 μl of acceptor solution and 0.8 μl of recombinant human CETP solution in a total volume of 100 μl with assay buffer and incubated for 3 hours at 37° C. The fluorescence intensity was measured at excitation wavelength of 485 nm and emission wavelength of 535 nm. IC50 values are calculated from dose effect curves from compound concentrations between 1 nM and 30 μM.

[1] = Assay for metabolic degradation; type: in vitro ADME; conditions: pH 7.6; pooled human liver microsomes, 37° C., microsomal protein 1 mg/ml, test compound 1 μM, NADPH 1 mM; read-out: half-life (t½) values for human liver microsomal metabolic degradation
Experimental: Assay for Metabolic Degradation
The metabolic degradation of the test compound is assayed at 37° C. with pooled human liver microsomes. The final incubation volume of 100 μl per time point contains TRIS buffer pH 7.6 at room temperature (0.1 M), magnesium chloride (5 mM), microsomal protein (1 mg/ml) and the test compound at a final concentration of 1 μM.
Following a short preincubation period at 37° C., the reactions were initiated by addition of beta-nicotinamide adenine dinucleotide phosphate, reduced form (NADPH, 1 mM) and terminated by transferring an aliquot into solvent after different time points. Additionally, the NADPH-independent degradation was monitored in incubations without NADPH, terminated at the last time point. The quenched incubations are pelleted by centrifugation (10000 g, 5 min). An aliquot of the supernatant is assayed by LC-MS/MS for the amount of parent compound. The half-life (t ½) is determined by the slope of the semilogarithmic plot of the concentration-time profile.

Recombinant human CETP, sequence (P11597 18-493): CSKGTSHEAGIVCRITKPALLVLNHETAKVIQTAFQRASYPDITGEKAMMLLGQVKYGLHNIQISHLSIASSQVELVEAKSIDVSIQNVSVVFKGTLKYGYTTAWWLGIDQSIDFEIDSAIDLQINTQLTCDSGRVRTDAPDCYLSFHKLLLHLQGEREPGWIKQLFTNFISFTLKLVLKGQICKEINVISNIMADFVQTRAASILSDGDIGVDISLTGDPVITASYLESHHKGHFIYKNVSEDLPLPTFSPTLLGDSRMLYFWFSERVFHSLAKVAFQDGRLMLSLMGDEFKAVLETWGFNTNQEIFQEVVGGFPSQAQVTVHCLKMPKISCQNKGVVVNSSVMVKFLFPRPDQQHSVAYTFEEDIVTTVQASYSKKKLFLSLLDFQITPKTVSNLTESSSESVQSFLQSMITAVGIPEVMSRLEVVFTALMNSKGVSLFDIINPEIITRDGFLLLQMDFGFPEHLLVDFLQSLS

Compound	IC50 (Recombinant human CETP)	half-life at 1 μM [1]
CC(C)c1nc2c(c3c1[C@@H](c1ccc(C(F)(F)F)c(C#N)c1)OC31CCOCC1)[C@@H](O)CC1(CC1)[C@H]2O [Example 6, 5-((3R,6R,9S)-6,9-dihydroxy-4-isopropyl-7,7-(ethan-1,2-diyl)-2′,3′,5′,6,6′,7,8,9-octahydro-3H-spiro[furo[3,4-c]quinoline-1,4′-pyran]-3-yl)-2-(trifluoromethyl)benzonitrile]	43 nM	–
CC(C)c1nc2c(c3c1[C@@H](c1ccc(C(F)(F)F)nc1)OC31CCOCC1)[C@@H](O)CC1(CC1)[C@H]2O [Example 8, (3R,6R,9S)-4-isopropyl-7,7-(ethan-1,2-diyl)-3-(6-(trifluoromethyl)pyridin-3-yl)-2′,3′,5′,6,6′,7,8,9-octahydro-3H-spiro[furo[3,4-c]quinoline-1,4′-pyran]-6,9-diol]	–	> 2.17 h
CC(C)c1nc2c(c3c1[C@@H](c1ccc(C(F)(F)F)c(C#N)c1)OC31CCOCC1)[C@@H](O)CC1(CC1)C2 [Example 2]	18 nM	> 2.17 h
CC(C)c1nc2c(c3c1[C@@H](c1ccc(C(F)(F)F)nc1)OC31CCOCC1)[C@@H](O)CC1(CC1)C2 [Example 4]	90 nM	–
CC(C)c1nc2c(c3c1[C@@H](c1ccc(C(F)(F)F)cc1)OC31CCOCC1)[C@@H](O)CC1(CC1)C2 [Example 1, (3R,9S)-4-isopropyl-7,7-(ethan-1,2-diyl)-3-(4-(trifluoromethyl)phenyl)-2′,3′,5′,6,6′,7,8,9-octahydro-3H-spiro[furo[3,4-c]quinoline-1,4′-pyran]-9-ol]	15 nM	> 2.17 h

The remaining lines, values ahead:

IC50 (Recombinant human CETP)	half-life at 1 μM [1]	Compound
11 nM	–	COc1cc([C@H]2OC3(CCOCC3)c3c2c(C(C)C)nc2c3[C@@H](O)CC3(CC3)[C@H]2O)ccc1C(F)(F)F [Example 7, (3R,6R,9S)-4-isopropyl-7,7-(ethan-1,2-diyl)-3-(3-methoxy-4-(trifluoromethyl)phenyl)-2′,3′,5′,6,6′,7,8,9-octahydro-3H-spiro[furo[3,4-c]quinoline-1,4′-pyran]-6,9-diol]
11 nM	–	COc1cc([C@H]2OC3(CCOCC3)c3c2c(C(C)C)nc2c3[C@@H](O)CC3(CC3)C2)ccc1C(F)(F)F [Example 3, (3R,9S)-4-isopropyl-7,7-(ethan-1,2-diyl)-3-(3-methoxy-4-(trifluoromethyl)phenyl)-2′,3,5′,6,6,7,8,9-octahydro-3H-spiro[furo[3,4-c]quinoline-1,4′-pyran]-9-ol]
9 nM	0.95 h	CC(C)c1nc2c(c3c1[C@@H](c1ccc(C(F)(F)F)cc1)OC31CCOCC1)[C@@H](O)CC1(CC1)[C@H]2O [Example 5, (3R,6R,9S)-4-isopropyl-7,7-(ethan-1,2-diyl)-3-(4-(trifluoromethyl)phenyl)-2′,3′,5′,6,6′,7,8,9-octahydro-3H-spiro[furo[3,4-c]quinoline-1,4′-pyran]-6,9-diol]
